Test results published in patent publication US20080226596A1, “Therapeutic compositions and methods useful in treating hepatitis” (priority 2006, published 2008).

How the values were obtained:
[1] = system: DU145 human prostate carcinoma xenografts; experiment: DU145 xenografts in nude mice; format: in vivo; conditions: 440 mg/kg daily
Method: (§1) The dosage of sodium stibogluconate corresponds to approximately 440 mg Sb/kg body weight (average mouse body weight 27 g), substantially higher than the standard therapeutic dose of 20 mg Sb/kg and the high dose (143 mg Sb/kg) that was clinically used by accident without serious toxicity. This dose of sodium stibogluconate was based on a previous observation in a pilot study that mice could tolerate daily dose of 20 mg Sb (approximately 700-800 mg Sb/kg). […] In light of the relatively rapid rate of clearance of the drug in vivo, 440 mg Sb/kg dosage was used to ensure the detection of the effectiveness of the drug for this initial study.
For each of the cell lines, each of 16 mice received subcutaneous injection at the chest area of 3×10^6 cells/site (WM9) or 2×10^6 cells/site (DU145), two sites/mouse, on day 0. Mice were separated into four groups of four to receive treatment, injected into the thigh area starting on day 2. Tumor size was measured with a caliper to determine the two perpendicular diameters of each tumor. Tumor volume was calculated using the method of the NCI (length×width 2 in millimeters/2=volume in cubic millimeters). […]

[2] = Toxicity/tolerance of sodium stibogluconate in nude mice; format: in vivo
Method: as §1
As discussed above, the dosage of sodium stibogluconate used for the treatment of nude mice was 12 mg Sb/mouse, s.c., daily (or approximately 440 mg/kg body weight). This dosage is much higher than the standard dose for leishmaniasis (20 mg Sb/kg, daily). As an initial step to assess the toxicity of such a high dosage of sodium stibogluconate in nude mice, the effect of sodium stibogluconate on the viability and body weights of WM9 xenografts nude mice during the 25 day period of the study was determined.

Baf3 cells = experiment: Cellular protein tyrosine phosphorylation in Baf3 cells (Western blot); format: cell-based, murine; conditions: IL-3-deprived Baf3 cells
Method: For induction of cellular protein phosphorylation by sodium stibogluconate or pervanadate, Baf3 cells were incubated in 0.1% FCS-RPMI 1640 medium at 37° C. for 16 hours. The cells were then washed twice in RPMI 1640 medium and incubated with sodium stibogluconate or pervanandate (0.1 mM) for various times prior to termination by lysing cells in cold lysis buffer (50 mM Tris, pH 7.4; 150 mM NaCl; 0.2 mM Na3VO4; 20 mm NaF; 1% Nonidet P-40; 2 mM PMSF; 20 µg/ml of Aprotinin and 1 mM of sodium molybdic acid). To determine the effect of sodium stibogluconate or potassium antimonyl tartrate on IL-3-induced Jak/Stat phosphorylation, Baf3 cells were deprived of the growth factor for 16 hours in 0.1% FCS RPMI 1640 medium and then incubated with or without sodium stibogluconate or potassium antimonyl tartrate for 10 minutes. IL-3 was next added to the cell suspension and incubated for various times. The Cells were then harvested and lysed in cold lysis buffer at 4° C. for 45 minutes. Total cell lysates (TCL) were separated in SDS-PAGE gels, blotted onto nitrocellulose membrane (Schleicher & Schuell), probed with specific antibodies and detected using an enhanced chemiluminescence kit (ECL, Amersham, Arlington Heights, Ill.).

[3] = system: Stat1 tyrosine phosphorylation; experiment: IFN-alpha-induced Stat1 tyrosine phosphorylation in human cancer cell lines; format: cell-based
Method: Cell lysates were prepared by lysing cells in cold lysis buffer for 30 min and cleared by centrifuging at 14,000 rpm at 4° C. for 15 min. For SDS-PAGE, cell lysates were mixed with equal volume of 2×SDS-PAGE sample buffer, heated at 90° C. for 5 min and separated in 10% SDS-PAGE gels. Cellular proteins in SDS-PAGE gels were transferred to nitrocellulose membrane (Schleicher & Schuell, Keene, N.H.), blocked in 5% milk, probed with antibodies and detected by using an enhanced chemiluminescence kit (ECL, Amersham, Arlington Heights, Ill.).

LoVo cells = experiment: LoVo colon cancer cell growth, MTT assay; format: cell-based, human; conditions: 100 μg/ml, day 6
Method: NIH3T3 (Yi, et al., Blood 85, 87 (1995)), WM9 (Forsberg, et al., Proc. Nat. Acad Sci. USA 90, 393 (1993)), DU145 (Mickey, et al., Cancer Res. 37, 4049 (1977)), LoVo (Drewinko, et al., Cancer Res. 36, 467 (1976)), HEY (Buick, et al., Cancer Res. 45, 3668 (1985)), U251 (Yoshida, et al., Cancer 50, 410 (1982)), A549 (Giard, et al., J. Natl. Cancer Inst. 51, 1417 (1973)) and SK-N-SH (Helson, et al., Cancer Res. 35, 2594 (1975)) cell lines have been described and were cultured in RPMI 1640 supplemented with 10% fetal calf serum (FCS). For measurement of sodium stibogluconate effects on cell growth in vitro, cells were cultured in the absence (−) or presence (+) of various amounts of sodium stibogluconate for 6 days with viable cells quantified by MTT assays (Mosmann, J. Immunol. Methods 65, 55 (1983)). Percentages of growth inhibition by sodium stibogluconate were calculated (.+−.x

DR cells = experiment: DR lymphoma cell growth, MTT assay; format: cell-based, human; conditions: 100 μg/ml, day 6
Method: For cell proliferation assays, cells were grown in 10% FCS culture medium containing various amounts of IFNs and/or sodium stibogluconate in 96 well plates and cultured at 37° C. for 3 or 6 days as indicated. The numbers of viable cells in proliferation assays were determined by MTT assays as described in Phatak et al., J. Immunol. 167, 3391 (2001).

**Q.** What does the source list for `O.O.O.O.O.O.O.O.O.O=C([O-])[C@@H]1[O][Sb]2([O-])([O][Sb]34([OH])[O][C@H]([C@H](O)CO)[C@H]([O]3)[C@H](C(=O)[O-])[O]4)[O][C@H]([C@H](O)CO)[C@@H]1[O]2.[Na+].[Na+].[Na+]` [sodium stibogluconate]?
**A.** histology of major organs [1]: unremarkable; survival of DU145-inoculated mice ([1]; until the end of the study): survived; tolerability ([2]; 12 mg Sb daily (440 mg Sb/kg daily)): well tolerated with no serious side effects; tolerated daily dose in mice ([2]; pilot study): 20 mg Sb; tolerated daily dose in mice per body weight ([2]; pilot study): 700-800 mg Sb/kg; internal organs on dissection ([2]; two mice from each group): no apparent abnormality of the internal organs; survival of WM9-inoculated nude mice ([2]; until day 25, 4 mice/group): survived; cellular protein tyrosine phosphorylation (Baf3 cells): induced protein tyrosine phosphorylation; Stat1 tyrosine phosphorylation by drug alone ([3]; DR cells, absence of IFN-alpha): failed to induce Stat1 tyrosine phosphorylation; IFN-alpha-induced Stat1 tyrosine phosphorylation ([3]; DU145 cells, 5 hours post-stimulation): Enhanced; IFN-alpha-induced Stat1 tyrosine phosphorylation ([3]; WM9 cells, 5 hours post-stimulation): Enhanced; IFN-alpha-induced Stat1 tyrosine phosphorylation ([3]; WM35 cells): failed to enhance; IFN-alpha-induced Stat1 tyrosine phosphorylation ([3]; WiT49-N1 cells): failed to enhance; killing of LoVo cells (LoVo cells): near-complete cell killing; killing of DR cells (DR cells): complete or near complete killing
